Patent EP2123285A1, “Nucleosidic phosphoantigens for use in VGAMMA9DELTA2 T cell-mediated therapy” (INSERM (Institut National de la Santé et de la Recherche …, priority 2008, dated 2009)
“Also recorded” adds a separate entry of the source. Read-outs that look alike come from different tables or passages of the source.

Assays:
[1] = tested on: polyclonal Vγ9Vδ2 T cell line; assay: Degranulation assay (CD107a) with tumor cell lines as presenting or pulsed cells; type: cell-based, human; conditions: for stimulatory activity of pulsed 721.221 cells: 721.221 cell line; for sensitivity of stimulation by pulsed cells to apyrase and pyrophosphatase: Daudi or K562 cells pulsed overnight (pamidronate 50µM, ApppI 20µM), apyrase 0.2U/mL, NPP 0.02U/mL, alone or in combination; for pulsing of RPMI-8226 cells: 2h, 10µM
[2] = tested on: polyclonal Vγ9Vδ2 T cell line; assay: Degranulation assay for cytolytic function (CD107a), direct stimulation with soluble antigens; type: cell-based, human; conditions: for surface expression of CD107a (cytotoxicity machinery): soluble antigen, no enzyme added
Excerpt: (§1) Brefeldin A was omitted. […] Cells were washed twice in FACS medium and stained for TCR-Vδ2. Data were acquired and analyzed as for proliferation assay. Results are expressed as the mean of triplicate microwell cultures +/-S.E.M.

apyrase = molecular target: T1, apyrase (Solanum tuberosum, UniProt P80595); assay: HPLC analysis of sensitivity to apyrase; type: in vitro ADME; conditions: 100µM, 0.2U/mL apyrase, 1h at 37°C in RPMI
T1 sequence (P80595 1-454): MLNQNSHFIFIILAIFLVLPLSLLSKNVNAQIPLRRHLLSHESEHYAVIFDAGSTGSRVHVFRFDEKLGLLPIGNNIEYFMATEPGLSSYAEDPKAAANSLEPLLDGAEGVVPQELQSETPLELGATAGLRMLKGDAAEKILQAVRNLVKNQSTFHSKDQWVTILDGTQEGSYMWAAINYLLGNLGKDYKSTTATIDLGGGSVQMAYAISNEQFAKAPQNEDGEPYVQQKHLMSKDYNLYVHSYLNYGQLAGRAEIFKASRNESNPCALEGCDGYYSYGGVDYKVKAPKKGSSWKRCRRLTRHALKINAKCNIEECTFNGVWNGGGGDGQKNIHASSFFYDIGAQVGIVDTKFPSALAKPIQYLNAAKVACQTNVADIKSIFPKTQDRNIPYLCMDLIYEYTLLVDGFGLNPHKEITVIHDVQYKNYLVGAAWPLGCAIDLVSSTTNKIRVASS
Description: Reaction mixes containing nucleosidic compounds were adjusted to 200µL with water and products were separated by HPLC (System Gold, Beckman Coulter) on a PL-SAX anion exchange column (1000Å, 5µm, 50x4.6mm from Polymer Labs Varian, Marseille, France) using water (A) and 1M (NH4)2HPO4, pH 3.5 (B) and the following elution gradient: 0-1 min: 0% B; 1-11 min: 0% to 30% B; 11-13 min: 100% B; 13-19min: 0% B. Eluted nucleotides were detected by monitoring UV absorbance at 260nm. In these conditions, adenosine and AMP are not retained on the column and are detected with the elution front. To evaluate phosphatase sensitivity, ApppI and ATP (100µM final concentration) were incubated for 1h at 37°C in 20µL RPMI in the presence of 0.2U/mL apyrase or 0.02U/mL nucleotide pyrophosphatase before analysis.

Vγ9Vδ2 T cells [3] = assay: Proliferation assay: Vγ9Vδ2 T cell expansion from PBL stimulated with phosphoantigen plus IL-2; type: cell-based, human
Vγ9Vδ2 T cells [4] = assay: Intracellular cytokine staining (IFNγ); type: cell-based, human
[5] = molecular target: T2, F1-ATPase purified from bovine heart mitochondria (Bos taurus, UniProt P00829+P19483); assay: F1-ATPase activity, ATP bioluminescence assay; type: biochemical; conditions: 1µM ATP, 5min, ApppI added in the reaction mixture
T2 construct: F1-ATPase purified from bovine heart mitochondria; from tissue; host or cells: bovine heart mitochondria
Description: (§2) F1-ATPase complexes were recovered from ammonium sulfate precipitates by centrifugation (17000g, 3min) and dissolved in ATPase assay buffer (10mM HEPES, 150mM NaCl, 5mM KCl, 2mM MgCl2, pH 7.5). ATP and ADP were measured using two different assays. For ATP measurements, a bioluminescence assay was used: 100ng F1-ATPase were incubated at room temperature in 50µL of ATPase assay buffer containing 1µM ATP and the indicated apyrase-treated ApppI concentrations in white 96 wells plates. After 5 minutes, 30µL of reconstituted luciferase from the ATP CLSII Kit (Roche) were added and luminescence was acquired on an Orion luminometer (Berthold Detection Systems). The kinetics of ADP production resulting from ATP hydrolysis was measured using the lactate dehydrogenase/pyruvate kinase assay and was adapted from Gledhill, J.R. et al., Biochem J 386, 591-598, 2005: 2µg F1-ATPase were incubated in 200µL of ATPase assay buffer supplemented with phosphoenol pyruvate (500µM), NADH (250µM), lactate dehydrogenase (LDH, 1U) and pyruvate kinase (PK, 5U), with the indicated ATP concentrations and with or without 100µM apyrase-treated ApppI. OD340nm was measured during 2 minutes (with one measurement every 10 seconds) on a Varioskan Flash spectrophotometer (Thermo Electron Corporation). The initial hydrolysis rate (V0) was calculated from a linear regression of the data. […]

[6] = molecular target: T2, F1-ATPase purified from bovine heart mitochondria; assay: F1-ATPase activity, kinetics of ADP production (lactate dehydrogenase/pyruvate kinase assay); type: biochemical; conditions: 100 µM ApppI, low ATP concentrations
Description: as §2

[7] = molecular target: T3, bovine F1-ATPase (in the form of F1Fo complexes) (Bos taurus, UniProt P00829+P19483); assay: Pulsing on F1Fo-coated beads and subsequent T cell activation (CD107a); type: binding
T3 construct: from tissue
Description: as §1
For immobilization on beads, solubilized F1Fo complexes were diluted to 1/3000 (5µg/mL) in 1 ml of PBS and incubated with 10^7 6µm polystyrene beads (Biovalley, Marne-la-Vallée, France) for 4h at room temperature on a rotating wheel. Beads were then pelleted by centrifugation (2min, 12000g), washed and incubated in 1mL of 1% BSA in PBS overnight, washed once with PBS and kept for several days at 4°C in PBS containing 1% BSA. Beads were used in stimulation assays as cultured cell lines. Control beads were prepared similarly except that F1Fo was replaced by BSA. In some experiments the beads were loaded with phosphoantigens: to this end, after washing a suitable aliquot, beads were incubated with ApppI or IPP (50µM) for 2 hours at 37°C in complete SFM medium, washed extensively, and used for Vγ9Vδ2 T cells stimulation. In phosphatase sensitivity assays (Fig.8) NPP or control medium were added to the beads in microculture wells 30min before pulsing the beads or addition of T cells. The beads were then washed and T cells were added with or without supplementation with the same phosphatases. T cell activation was evaluated as described above.

Vγ9Vδ2 T cells [8] = assay: Single cell analysis of calcium mobilization; type: cell-based, human; conditions: ApppI-loaded, F1-coated beads
[9] = molecular target: nucleotide pyrophosphatase (Crotalus adamanteus, UniProt J3SEZ3)

With `NCCC(O)(P(=O)(O)O)P(=O)(O)O` [pamidronate, reference compound] the “stimulatory activity of pulsed 721.221 cells” value [1] was “poorly stimulatory” and the “sensitivity of stimulation by pulsed cells to apyrase and pyrophosphatase” value [1] was “completely resistant”.
For `Cc1nc(N=Nc2ccc(S(=O)(=O)O)cc2S(=O)(=O)O)c(COP(=O)(O)O)c(C=O)c1O` [PPADS, pyridoxal phosphate-6-azophenyl-2',4'-disulfonic acid], the “effect on ApppI stimulatory activity” value ([2]; PPADS added to ApppI stimulation) was “inhibition” and the “effect on IPP stimulatory activity” value ([2]; PPADS added to IPP stimulation) was “partially decreases”.
`Nc1ncnc2c1ncn2[C@@H]1O[C@H](COP(=O)(O)OP(=O)(O)OP(=O)(O)O)[C@@H](O)[C@H]1O` [ATP, reference compound] was tested, and the “HPLC profile after apyrase treatment” value (apyrase) was “completely hydrolyzed”.
For `C=C(C)CCO[P@@](=O)(O)OP(=O)(O)O` [IPP, isopentenyl pyrophosphate, reference compound], the “surface expression of CD107a (cytotoxicity machinery)” value [2] was “stronger stimulation” and the “stimulatory activity retained on pulsed tumor cells after extensive washing” value [1] was “less than 20%”.
In the case of `CC[C@H](C)C(=O)O[C@H]1C[C@@H](C)C=C2C=C[C@H](C)[C@H](CC[C@@H]3C[C@@H](O)CC(=O)O3)[C@H]21` [lovastatin, reference compound], the “effect on stimulatory activity induced by pulsing with ApppI” value ([1]; K562 cells, lovastatin 20µM, ApppI 20µM, overnight) is reported as “does not inhibit” and the “effect on stimulatory activity induced by pamidronate” value ([1]; K562 cells, lovastatin 20µM, pamidronate 50µM, overnight) is reported as “efficiently abrogates”.
`Nc1ncnc2c1ncn2[C@@H]1O[C@H](COP(=O)(O)OP(=O)(O)O)[C@@H](O)[C@H]1O` [ADP] was tested, and the “effect on T cell stimulations” value ([2]; data not shown) was “no effect”.
`C=C(C)CCOP(=O)(O)OP(=O)(O)OP(=O)(O)OC[C@H]1O[C@@H](n2cnc3c(N)ncnc32)[C@H](O)[C@@H]1O` [ApppI, 1-(adenosin-5'-yl) 3-(3-methylbut-3-enyl) triphosphoric diester] was tested, and the “homogeneity of the culture (Vγ9Vδ2 T cells)” value (Vγ9Vδ2 T cells [3]; 5 µM) was ~94%, the induction of proliferation (Vγ9Vδ2 T cells [3]; PBL stimulation) was “could induce” and the “higher molar concentration required for a similar effect on Vγ9Vδ2 T cell expansion from PBLs” value (Vγ9Vδ2 T cells [3]; relative to IPP, 1 week after PBL stimulation) was 5-10 fold. For the same compound, the “effect of ApppI added to IPP on the IPP response” value (Vγ9Vδ2 T cells [4]; IPP (10µM) plus ApppI at varying concentrations) was “does not compete with IPP”, the “induction of intracellular IFN-γ production” value (Vγ9Vδ2 T cells [4]; PBL stimulation) was “could induce” and the “higher concentration required for a similar cytokine response” value (Vγ9Vδ2 T cells [4]; relative to IPP, intracellular IFNγ) was 50-100 fold. The “effect of exogenous NPP on stimulatory activity” value ([2]; NPP 0.02U/mL added to the T cell stimulation assay) was “greatly increased”, the “effect of apyrase on stimulatory activity” value ([2]; apyrase 0.2U/mL, antigen 10µM) was “abrogates completely” and the “surface expression of CD107a (cytotoxicity machinery)” value [2] was “less bioactive than IPP itself”. The “HPLC profile after apyrase treatment” value (apyrase) was “did not change its HPLC profile”, the “stimulatory activity of pulsed 721.221 cells” value [1] was “cannot be significantly pulsed; also recorded: poorly stimulatory” and the “pulsing of RPMI-8226 cells” value ([1]; 4°C) was “abrogated”. The “pulsing of RPMI-8226 cells” value ([1]; 37°C) was “sufficient to confer stable stimulatory activity”, the “pulsing of RPMI-8226 cells” value ([1]; 37°C after 2h pre-treatment with cytochalasin D (10µM)) was “abrogated” and the “sensitivity of stimulation by pulsed cells to apyrase and pyrophosphatase” value [1] was “completely resistant”. For the same compound, the “stimulation by combination of RPMI-8226 cells and phosphoantigen” value ([1]; RPMI-8226 cells 1:1 ratio plus soluble antigen) was “synergistic activation”, the “stimulatory activity retained on pulsed tumor cells after extensive washing” value ([1]; tumor cell lines pulsed overnight, compared to tumor cells not washed) was 70% and the “increase of the amount of ATP hydrolyzed by the complex” value [5] was “two-fold”. The “initial rate of ADP production relative to the rate in the absence of ApppI” value [6] was “approximately twice”, the “stimulatory activity of loaded F1-ATPase-coated beads” value ([7]; ApppI treated with NPP before pulsing on beads) was “no activity is retained” and the “stimulatory activity of loaded F1-ATPase-coated beads” value ([7]; NPP 0.02U/mL added in the T cell stimulation assay) was “a strong stimulatory activity can be revealed”. For the same compound, the “stimulatory activity of loaded F1-ATPase-coated beads” value ([7]; beads incubated with 50µM antigen for 2h, washed, no NPP) was “confers some additional stimulatory activity”, the “stimulatory activity of loaded F1-ATPase-coated beads” value ([7]; beads treated with NPP after pulsing, then washed) was “retain an activity identical to that of beads which have not been treated with NPP” and the intracellular calcium mobilization (Vγ9Vδ2 T cells [8]; NPP 0.02U/mL added after contact) was “slow but strong and sustained calcium response”. The intracellular calcium mobilization (Vγ9Vδ2 T cells [8]; no NPP) was “clear activation in few cells only” and the “hydrolysis by NPP (HPLC)” value [9] was “can be hydrolyzed”.
